{
  "source": "ChEMBL document CHEMBL1201862",
  "about": "“PubChem BioAssay data set” (2004)",
  "key": {"[1]": {"target": "T1, Short transient receptor potential channel 4 (Mus musculus, UniProt Q9QUQ5)", "T1 sequence (Q9QUQ5 whole entry)": "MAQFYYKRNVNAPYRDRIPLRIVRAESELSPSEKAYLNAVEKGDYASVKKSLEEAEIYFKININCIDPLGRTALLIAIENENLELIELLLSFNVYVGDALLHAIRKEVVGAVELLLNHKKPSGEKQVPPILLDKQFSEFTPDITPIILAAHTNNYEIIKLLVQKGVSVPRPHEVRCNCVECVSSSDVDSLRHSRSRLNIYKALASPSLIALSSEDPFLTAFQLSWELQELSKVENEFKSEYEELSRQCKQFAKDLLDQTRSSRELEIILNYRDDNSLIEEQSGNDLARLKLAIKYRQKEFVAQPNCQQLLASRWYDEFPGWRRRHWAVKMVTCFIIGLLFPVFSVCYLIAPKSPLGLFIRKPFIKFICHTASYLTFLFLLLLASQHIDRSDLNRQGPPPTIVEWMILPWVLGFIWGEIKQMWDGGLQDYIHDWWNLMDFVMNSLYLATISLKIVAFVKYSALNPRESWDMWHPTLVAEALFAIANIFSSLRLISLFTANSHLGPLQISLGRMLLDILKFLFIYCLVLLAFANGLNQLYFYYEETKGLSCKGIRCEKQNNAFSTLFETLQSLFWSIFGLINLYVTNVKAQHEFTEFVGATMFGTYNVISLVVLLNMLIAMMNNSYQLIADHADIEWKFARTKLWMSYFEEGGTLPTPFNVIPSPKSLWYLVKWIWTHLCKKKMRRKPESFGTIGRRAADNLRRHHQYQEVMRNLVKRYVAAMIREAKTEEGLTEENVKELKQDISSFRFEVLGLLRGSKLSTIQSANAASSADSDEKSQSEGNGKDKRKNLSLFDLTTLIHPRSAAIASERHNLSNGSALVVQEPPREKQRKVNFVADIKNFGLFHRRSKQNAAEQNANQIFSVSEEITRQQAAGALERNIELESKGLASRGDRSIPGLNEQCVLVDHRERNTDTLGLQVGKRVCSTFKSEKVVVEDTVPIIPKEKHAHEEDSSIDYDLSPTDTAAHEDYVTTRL", "assay": "mouse TRPC4 channel activators, dose response, cell-based, HEK293 TRPC4/mu-opioid, Fluo-4 calcium (AID 434937)", "assay_type": "functional"}, "[2]": {"target": "T1, Short transient receptor potential channel 4", "assay": "mouse TRPC4 channel inhibitors, dose response, cell-based, HEK293 TRPC4/mu-opioid, Fluo-4 calcium (AID 434942);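 note: potency of inhibitors blocking the TRPC4 calcium response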", "assay_type": "functional"}, "Cytochrome P450 3A4": {"target": "Cytochrome P450 3A4 (Homo sapiens, UniProt P08684)", "sequence (P08684 whole entry)": "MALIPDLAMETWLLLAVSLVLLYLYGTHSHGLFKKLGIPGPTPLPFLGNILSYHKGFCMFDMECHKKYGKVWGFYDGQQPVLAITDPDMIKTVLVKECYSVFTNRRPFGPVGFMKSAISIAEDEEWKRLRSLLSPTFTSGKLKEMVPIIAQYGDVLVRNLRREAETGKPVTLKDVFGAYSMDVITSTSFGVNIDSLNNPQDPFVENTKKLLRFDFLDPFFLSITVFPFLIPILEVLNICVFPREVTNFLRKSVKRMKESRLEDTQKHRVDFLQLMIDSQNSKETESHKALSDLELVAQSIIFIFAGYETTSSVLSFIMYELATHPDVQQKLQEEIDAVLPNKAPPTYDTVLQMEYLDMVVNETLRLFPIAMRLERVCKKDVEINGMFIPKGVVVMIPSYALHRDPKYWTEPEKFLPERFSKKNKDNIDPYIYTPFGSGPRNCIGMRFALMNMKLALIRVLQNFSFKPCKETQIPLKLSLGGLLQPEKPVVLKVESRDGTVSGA"}, "[3]": {"assay": "cytotoxicity in HEK-293T NF-kB-Luc cells, dose response, cytotoxicity control for B/T-cell NF-kB inhibitor project, cell-based, uHTS hits (AID 489019);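 note: IC50 reflects cytotoxicity as loss of cell viability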", "assay_type": "functional"}, "Cytochrome P450 2C9": {"target": "Cytochrome P450 2C9 (Homo sapiens, UniProt P11712)", "sequence (P11712 whole entry)": "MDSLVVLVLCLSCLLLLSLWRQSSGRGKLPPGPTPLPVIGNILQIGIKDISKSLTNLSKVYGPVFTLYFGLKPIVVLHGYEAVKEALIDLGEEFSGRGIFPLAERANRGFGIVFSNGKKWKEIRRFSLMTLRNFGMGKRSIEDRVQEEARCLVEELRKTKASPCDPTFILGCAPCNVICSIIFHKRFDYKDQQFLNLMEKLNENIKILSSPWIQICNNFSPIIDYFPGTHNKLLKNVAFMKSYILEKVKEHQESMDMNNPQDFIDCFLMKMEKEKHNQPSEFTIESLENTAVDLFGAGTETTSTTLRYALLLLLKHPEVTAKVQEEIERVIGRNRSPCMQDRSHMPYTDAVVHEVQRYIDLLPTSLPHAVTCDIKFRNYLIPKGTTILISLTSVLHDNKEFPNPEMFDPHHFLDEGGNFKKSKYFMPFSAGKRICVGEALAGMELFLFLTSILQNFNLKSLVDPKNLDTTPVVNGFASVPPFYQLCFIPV"}, "Jurkat": {"system": "Jurkat", "assay": "antigen receptor-induced NF-kB inhibitors, dose response, Jurkat, luciferase reporter, luminescence, B- and T-cell (AID 489004);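 note: NF-kB luciferase reporter Jurkat cells stimulated with PMA plus ionomycin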", "assay_type": "functional, cell-based", "conditions": "Homo sapiens"}, "Cytochrome P450 1A2": {"target": "T2, Cytochrome P450 1A2 (Homo sapiens, UniProt P05177)", "T2 sequence (P05177 whole entry)": "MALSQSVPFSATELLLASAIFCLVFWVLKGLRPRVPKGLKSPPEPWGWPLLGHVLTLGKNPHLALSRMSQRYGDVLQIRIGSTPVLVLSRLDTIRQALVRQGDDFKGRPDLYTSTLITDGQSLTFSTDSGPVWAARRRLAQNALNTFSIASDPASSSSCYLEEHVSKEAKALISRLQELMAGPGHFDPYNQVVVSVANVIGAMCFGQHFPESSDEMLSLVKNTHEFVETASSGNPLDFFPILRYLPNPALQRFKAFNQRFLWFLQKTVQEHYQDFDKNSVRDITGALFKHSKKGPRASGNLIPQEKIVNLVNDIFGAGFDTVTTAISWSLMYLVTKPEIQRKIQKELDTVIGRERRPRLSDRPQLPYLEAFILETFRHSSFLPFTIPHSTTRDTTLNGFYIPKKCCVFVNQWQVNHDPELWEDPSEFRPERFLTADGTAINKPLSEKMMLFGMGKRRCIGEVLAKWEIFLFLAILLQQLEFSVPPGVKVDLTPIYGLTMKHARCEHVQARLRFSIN"}, "Cytochrome P450 2D6": {"target": "Cytochrome P450 2D6 (Homo sapiens, UniProt P10635)", "sequence (P10635 whole entry)": "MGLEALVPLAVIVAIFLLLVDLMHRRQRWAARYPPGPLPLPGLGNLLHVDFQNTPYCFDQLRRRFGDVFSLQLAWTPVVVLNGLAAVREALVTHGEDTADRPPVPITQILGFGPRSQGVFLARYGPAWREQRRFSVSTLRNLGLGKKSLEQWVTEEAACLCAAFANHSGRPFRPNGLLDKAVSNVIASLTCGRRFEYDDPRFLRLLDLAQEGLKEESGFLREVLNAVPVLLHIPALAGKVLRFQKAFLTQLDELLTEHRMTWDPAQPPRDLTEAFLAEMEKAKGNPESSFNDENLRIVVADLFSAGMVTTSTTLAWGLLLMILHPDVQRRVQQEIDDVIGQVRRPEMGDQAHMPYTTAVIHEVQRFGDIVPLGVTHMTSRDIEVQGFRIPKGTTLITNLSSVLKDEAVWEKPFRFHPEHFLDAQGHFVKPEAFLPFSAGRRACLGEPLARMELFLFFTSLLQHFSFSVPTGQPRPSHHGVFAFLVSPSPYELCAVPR"}, "[4]": {"target": "Glucose-6-phosphate 1-dehydrogenase (Homo sapiens, UniProt P11413)", "sequence (P11413 whole entry)": "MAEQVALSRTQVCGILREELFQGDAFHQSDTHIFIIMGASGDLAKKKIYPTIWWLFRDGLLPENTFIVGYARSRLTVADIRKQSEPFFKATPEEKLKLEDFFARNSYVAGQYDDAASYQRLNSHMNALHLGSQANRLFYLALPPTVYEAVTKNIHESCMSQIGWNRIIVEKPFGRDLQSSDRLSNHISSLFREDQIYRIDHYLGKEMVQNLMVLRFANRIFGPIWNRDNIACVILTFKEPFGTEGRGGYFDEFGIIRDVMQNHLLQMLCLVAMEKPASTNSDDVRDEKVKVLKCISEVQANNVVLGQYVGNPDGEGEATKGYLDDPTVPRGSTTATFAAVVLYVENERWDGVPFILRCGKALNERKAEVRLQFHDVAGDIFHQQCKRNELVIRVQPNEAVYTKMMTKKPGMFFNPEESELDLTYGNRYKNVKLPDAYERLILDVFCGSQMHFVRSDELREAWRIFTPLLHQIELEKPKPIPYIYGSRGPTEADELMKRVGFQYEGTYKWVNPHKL", "assay": "human G6PD enzyme inhibitors, dose response, selectivity assay for P. falciparum G6PD inhibitor project, biochemical, fluorescence (AID 504792)", "assay_type": "functional"}, "[5]": {"assay": "Luminescence Cell-Based Dose Confirmation to Identify Activators of 5'UTR Stem-Loop Driven Alpha-Synuclein mRNA Translation in H4 Neuroglioblastoma Cells. [Related pubchem assays: 1829 (Project Summary), 1814 (Primary HTS)]", "assay_type": "functional"}, "H4": {"system": "H4", "assay": "Luminescence Cell-Based Dose Response HTS to Identify Activators of 5'UTR Stem-Loop Driven Prion Protein mRNA Translation in H4 Neuroglioblastoma Cells. [Related pubchem assays: 1829 (Project Summary), 1814 (Primary HTS)]", "assay_type": "functional", "conditions": "Homo sapiens"}, "[6]": {"assay": "Luminescence Cell-Based Dose Response HTS to Identify Activators of Luciferase Translation or Activity in H4 […] Cells. [Related pubchem assays: 1829 (Project Summary), 1814 (Primary HTS)]", "assay_type": "functional"}, "[7]": {"assay": "Luminescence Cell-Based Dose Confirmation HTS to Identify Activators of 5'UTR Stem-Loop Driven Alpha-Synuclein mRNA Translation in H4 Neuroglioblastoma Cells. [Related pubchem assays: 1829 (Project Summary), 1814 (Primary HTS)]", "assay_type": "functional"}, "[8]": {"assay": "Luminescence Cell-Based Dose Response to Identify Activators of Luciferase Translation or Activity in H4-C Neuroglioblastoma Cells. [Related pubchem assays: 1829 (Project Summary), 1814 (Primary HTS)]", "assay_type": "functional"}, "[9]": {"assay": "Luminescence Cell-Based Dose Response to Identify Activators of 5'UTR Stem-Loop Driven Prion Protein mRNA Translation in H4-C Neuroglioblastoma Cells. [Related pubchem assays: 1829 (Project Summary), 1814 (Primary HTS)]", "assay_type": "functional"}, "Coagulation factor XII": {"target": "T3, Coagulation factor XII (Homo sapiens, UniProt P00748)", "T3 sequence (P00748 whole entry)": "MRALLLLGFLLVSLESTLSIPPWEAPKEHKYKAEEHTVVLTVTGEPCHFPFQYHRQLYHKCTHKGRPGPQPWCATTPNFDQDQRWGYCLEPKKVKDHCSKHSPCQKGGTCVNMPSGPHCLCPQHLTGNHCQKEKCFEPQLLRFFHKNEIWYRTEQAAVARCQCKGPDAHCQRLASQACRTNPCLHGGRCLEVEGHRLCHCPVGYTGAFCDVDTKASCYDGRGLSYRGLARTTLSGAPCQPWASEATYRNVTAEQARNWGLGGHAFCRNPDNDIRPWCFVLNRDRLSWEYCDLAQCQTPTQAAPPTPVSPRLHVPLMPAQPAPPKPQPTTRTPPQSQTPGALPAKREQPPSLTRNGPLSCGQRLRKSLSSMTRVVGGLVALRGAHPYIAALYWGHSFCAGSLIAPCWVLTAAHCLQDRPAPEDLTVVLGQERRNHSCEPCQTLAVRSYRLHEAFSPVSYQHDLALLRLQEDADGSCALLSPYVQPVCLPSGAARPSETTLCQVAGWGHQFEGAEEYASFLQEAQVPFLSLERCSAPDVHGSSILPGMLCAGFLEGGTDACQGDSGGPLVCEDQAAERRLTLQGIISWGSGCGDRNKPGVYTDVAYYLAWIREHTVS", "assay_type": "functional"}, "Vero": {"system": "Vero", "assay": "cells", "assay_type": "functional", "conditions": "Chlorocebus sabaeus"}, "[10]": {"assay": "Luminescence Cell-Based Dose Retest to Confirm Inhibitors of Cancer Stem Cells. [Related pubchem assays (depositor defined):AID2717, AID2721]", "assay_type": "functional", "conditions": "Homo sapiens"}},
  "note": "The source made the active and inactive calls.",
  "data": [
    {"compound": "COc1ccc(CCN(C)CCN2C(=O)c3ccccc3C2=O)cc1OC", "values": [
      {"measurement": "EC50", "setting": "[1]", "result": "1.06 µM (active)"},
      {"measurement": "EC50", "setting": "[2]", "result": "1.88 µM (active)"}
    ]},
    {"compound": "O=C(c1cnccn1)N1CCC2(CC1)CCN(c1ccccn1)CC2", "values": [
      {"measurement": "AC50", "setting": "Cytochrome P450 3A4", "result": "inconclusive"}
    ]},
    {"compound": "Cc1cc([N+](=O)[O-])nn1Cc1ccccc1F", "values": [
      {"measurement": "IC50", "setting": "[3]", "result": "> 80 µM (inactive)"},
      {"measurement": "AC50", "setting": "Cytochrome P450 2C9", "result": "inconclusive"},
      {"measurement": "IC50", "setting": "Jurkat", "result": "> 80 µM (inactive)"},
      {"measurement": "AC50", "setting": "Cytochrome P450 1A2", "result": "22.4 µM (inconclusive)"}
    ]},
    {"compound": "COc1cc2c(cc1OC)[C@H](c1ccccc1)CN(C)CC2", "values": [
      {"measurement": "AC50", "setting": "Cytochrome P450 3A4", "result": "inconclusive"},
      {"measurement": "AC50", "setting": "Cytochrome P450 2D6", "result": "31.6 µM (inconclusive)"}
    ]},
    {"compound": "O=C1C(c2cc(O)c3ccccc3n2)=C(O)c2ccccc21", "values": [
      {"measurement": "IC50", "setting": "[4]", "result": "53.4 µM (inactive)"}
    ]},
    {"compound": "c1csc(-c2nc(N3CCCCC3)no2)c1", "values": [
      {"measurement": "EC50", "setting": "[5]", "result": "0.29 µM (active)"},
      {"measurement": "EC50", "setting": "H4", "result": "1.22 µM (active)"},
      {"measurement": "EC50", "setting": "[6]", "result": "< 0.1 µM (active)"},
      {"measurement": "EC50", "setting": "[7]", "result": "< 0.1 µM (active)"},
      {"measurement": "EC50", "setting": "[8]", "result": "0.36 µM (active)"},
      {"measurement": "EC50", "setting": "[9]", "result": "0.38 µM (active)"}
    ]},
    {"compound": "COC(=O)Cc1c(C)nc2ncnn2c1O", "values": [
      {"measurement": "IC50", "setting": "Coagulation factor XII", "result": "> 50 µM (inactive)"}
    ]},
    {"compound": "COCCn1c(SCC(=O)c2ccccc2)nc2ccccc2c1=O", "values": [
      {"measurement": "EC50", "setting": "[2]", "result": "0.376 µM (active)"}
    ]},
    {"compound": "COc1cc(NCCCn2cnc3c(OCc4ccccc4)ncnc32)cc(OC)c1OC", "values": [
      {"measurement": "IC50", "setting": "[4]", "result": "> 80 µM (inactive)"}
    ]},
    {"compound": "OC1(c2ccc(Cl)cc2)CCN(Cc2c[nH]c3ccccc23)CC1", "values": [
      {"measurement": "AC50", "setting": "Cytochrome P450 2C9", "result": "inconclusive"},
      {"measurement": "AC50", "setting": "Cytochrome P450 3A4", "result": "inconclusive"}
    ]},
    {"compound": "COc1ccc(CCc2cc(OC)c(OC)c(OC)c2)cc1", "values": [
      {"measurement": "CC50", "setting": "Vero", "result": "1.66 µM (active)"}
    ]},
    {"compound": "CC(=O)O[C@H]1[C@H]2O[C@]23[C@@H]2CC[C@]4(O)C[C@@H](O)CC[C@]4(C)[C@H]2CC[C@]3(C)[C@H]1c1ccc(=O)oc1", "note": "[CINOBUFOTALIN]", "values": [
      {"measurement": "IC50", "setting": "[3]", "result": "> 80 µM (inactive)"},
      {"measurement": "IC50", "setting": "Jurkat", "result": "3.19 µM (active)"},
      {"measurement": "AC50", "setting": "[10]", "result": "< 0.16 µM (active)"}
    ]}
  ]
}
